The values that follow come from paper PMC4492579, “Potent and Selective Triazole-Based Inhibitors of the Hypoxia-Inducible Factor Prolyl-Hydroxylases with Activity in the Murine Brain” (PLoS ONE, 2015).

pIC50: −log10 of the molar value.

One experiment has as its target FIH (Homo sapiens, UniProt Q9NWT6). The experiment can be described thus: FIH liquid chromatography-mass spectrometry assay (RapidFire).
The target of another experiment is T1, JMJD2C (KDM4C) (Homo sapiens, UniProt Q9H3R0).
T1 sequence (Q9H3R0 1-1056): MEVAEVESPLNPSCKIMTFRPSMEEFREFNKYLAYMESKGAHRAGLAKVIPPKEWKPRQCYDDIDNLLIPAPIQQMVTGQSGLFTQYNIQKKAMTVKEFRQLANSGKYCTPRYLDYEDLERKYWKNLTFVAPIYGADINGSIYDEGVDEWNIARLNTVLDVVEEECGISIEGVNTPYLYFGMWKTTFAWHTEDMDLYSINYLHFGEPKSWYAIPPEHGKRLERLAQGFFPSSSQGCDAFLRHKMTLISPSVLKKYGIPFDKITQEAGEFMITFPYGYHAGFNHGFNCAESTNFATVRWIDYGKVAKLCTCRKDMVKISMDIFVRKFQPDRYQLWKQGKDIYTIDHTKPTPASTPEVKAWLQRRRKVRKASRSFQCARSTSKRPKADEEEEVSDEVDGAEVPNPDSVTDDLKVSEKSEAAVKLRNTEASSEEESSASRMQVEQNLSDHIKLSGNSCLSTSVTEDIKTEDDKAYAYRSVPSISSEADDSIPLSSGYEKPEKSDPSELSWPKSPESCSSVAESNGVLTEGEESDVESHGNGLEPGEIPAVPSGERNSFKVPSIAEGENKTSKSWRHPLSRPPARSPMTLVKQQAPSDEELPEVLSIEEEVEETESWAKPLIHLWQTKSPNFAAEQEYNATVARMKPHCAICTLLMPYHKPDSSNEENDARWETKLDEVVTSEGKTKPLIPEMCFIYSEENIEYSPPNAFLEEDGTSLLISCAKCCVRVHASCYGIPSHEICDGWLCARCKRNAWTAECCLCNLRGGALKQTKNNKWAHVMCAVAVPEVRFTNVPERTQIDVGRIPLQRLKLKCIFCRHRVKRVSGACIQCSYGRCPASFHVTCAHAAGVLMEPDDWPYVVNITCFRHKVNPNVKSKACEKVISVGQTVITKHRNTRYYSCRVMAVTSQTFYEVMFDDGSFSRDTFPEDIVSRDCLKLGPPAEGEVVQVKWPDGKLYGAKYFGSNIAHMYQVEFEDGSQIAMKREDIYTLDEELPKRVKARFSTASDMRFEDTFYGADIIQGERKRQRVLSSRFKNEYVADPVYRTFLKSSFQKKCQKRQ
Details: method as in PMID 26682036. The note with it: cited from earlier work.

For another experiment, the target named is JMJD3 (KDM6B) (Homo sapiens, UniProt O15054). Also noted: method as in PMID 26682036. The note with it: cited from earlier work.
A further experiment concerns the target T2, JMJD1A (KDM3A) (Homo sapiens, UniProt Q9Y4C1).
T2 sequence (Q9Y4C1 1-1321): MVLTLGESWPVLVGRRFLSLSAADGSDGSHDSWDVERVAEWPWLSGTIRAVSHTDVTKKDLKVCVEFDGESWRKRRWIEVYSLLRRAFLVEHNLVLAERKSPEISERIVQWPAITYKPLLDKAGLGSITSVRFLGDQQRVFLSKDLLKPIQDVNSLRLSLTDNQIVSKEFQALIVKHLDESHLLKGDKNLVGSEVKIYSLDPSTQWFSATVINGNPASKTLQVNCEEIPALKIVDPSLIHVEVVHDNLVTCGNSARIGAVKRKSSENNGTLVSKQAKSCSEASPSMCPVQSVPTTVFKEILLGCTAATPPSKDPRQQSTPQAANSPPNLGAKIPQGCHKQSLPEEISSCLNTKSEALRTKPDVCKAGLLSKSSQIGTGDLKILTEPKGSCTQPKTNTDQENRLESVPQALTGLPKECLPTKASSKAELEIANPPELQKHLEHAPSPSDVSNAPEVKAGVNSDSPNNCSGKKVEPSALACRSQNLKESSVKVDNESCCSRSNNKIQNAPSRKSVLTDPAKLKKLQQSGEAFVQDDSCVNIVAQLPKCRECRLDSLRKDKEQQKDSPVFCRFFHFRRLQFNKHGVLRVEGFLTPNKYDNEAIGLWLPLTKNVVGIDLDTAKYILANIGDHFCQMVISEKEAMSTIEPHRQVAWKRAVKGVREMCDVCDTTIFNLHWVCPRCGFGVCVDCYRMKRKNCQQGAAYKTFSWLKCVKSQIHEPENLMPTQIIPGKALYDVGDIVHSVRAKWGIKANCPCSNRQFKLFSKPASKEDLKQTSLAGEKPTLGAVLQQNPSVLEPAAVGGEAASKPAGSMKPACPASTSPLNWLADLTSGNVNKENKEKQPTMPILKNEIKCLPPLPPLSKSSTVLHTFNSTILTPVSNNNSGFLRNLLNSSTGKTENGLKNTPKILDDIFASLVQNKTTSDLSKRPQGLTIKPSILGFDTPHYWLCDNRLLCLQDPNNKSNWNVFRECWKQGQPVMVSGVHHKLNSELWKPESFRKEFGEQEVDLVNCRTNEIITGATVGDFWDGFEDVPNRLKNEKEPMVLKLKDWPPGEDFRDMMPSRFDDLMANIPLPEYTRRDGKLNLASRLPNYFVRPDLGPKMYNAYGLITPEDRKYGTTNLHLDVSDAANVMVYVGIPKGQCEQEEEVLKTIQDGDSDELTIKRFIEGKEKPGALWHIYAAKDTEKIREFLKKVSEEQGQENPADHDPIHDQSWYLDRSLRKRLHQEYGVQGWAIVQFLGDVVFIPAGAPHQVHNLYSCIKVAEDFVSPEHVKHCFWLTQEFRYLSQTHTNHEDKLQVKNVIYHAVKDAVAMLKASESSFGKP
In words: KDM AlphaScreen assay, JMJD1A.

JMJD3 (KDM6B), sequence (O15054 whole entry): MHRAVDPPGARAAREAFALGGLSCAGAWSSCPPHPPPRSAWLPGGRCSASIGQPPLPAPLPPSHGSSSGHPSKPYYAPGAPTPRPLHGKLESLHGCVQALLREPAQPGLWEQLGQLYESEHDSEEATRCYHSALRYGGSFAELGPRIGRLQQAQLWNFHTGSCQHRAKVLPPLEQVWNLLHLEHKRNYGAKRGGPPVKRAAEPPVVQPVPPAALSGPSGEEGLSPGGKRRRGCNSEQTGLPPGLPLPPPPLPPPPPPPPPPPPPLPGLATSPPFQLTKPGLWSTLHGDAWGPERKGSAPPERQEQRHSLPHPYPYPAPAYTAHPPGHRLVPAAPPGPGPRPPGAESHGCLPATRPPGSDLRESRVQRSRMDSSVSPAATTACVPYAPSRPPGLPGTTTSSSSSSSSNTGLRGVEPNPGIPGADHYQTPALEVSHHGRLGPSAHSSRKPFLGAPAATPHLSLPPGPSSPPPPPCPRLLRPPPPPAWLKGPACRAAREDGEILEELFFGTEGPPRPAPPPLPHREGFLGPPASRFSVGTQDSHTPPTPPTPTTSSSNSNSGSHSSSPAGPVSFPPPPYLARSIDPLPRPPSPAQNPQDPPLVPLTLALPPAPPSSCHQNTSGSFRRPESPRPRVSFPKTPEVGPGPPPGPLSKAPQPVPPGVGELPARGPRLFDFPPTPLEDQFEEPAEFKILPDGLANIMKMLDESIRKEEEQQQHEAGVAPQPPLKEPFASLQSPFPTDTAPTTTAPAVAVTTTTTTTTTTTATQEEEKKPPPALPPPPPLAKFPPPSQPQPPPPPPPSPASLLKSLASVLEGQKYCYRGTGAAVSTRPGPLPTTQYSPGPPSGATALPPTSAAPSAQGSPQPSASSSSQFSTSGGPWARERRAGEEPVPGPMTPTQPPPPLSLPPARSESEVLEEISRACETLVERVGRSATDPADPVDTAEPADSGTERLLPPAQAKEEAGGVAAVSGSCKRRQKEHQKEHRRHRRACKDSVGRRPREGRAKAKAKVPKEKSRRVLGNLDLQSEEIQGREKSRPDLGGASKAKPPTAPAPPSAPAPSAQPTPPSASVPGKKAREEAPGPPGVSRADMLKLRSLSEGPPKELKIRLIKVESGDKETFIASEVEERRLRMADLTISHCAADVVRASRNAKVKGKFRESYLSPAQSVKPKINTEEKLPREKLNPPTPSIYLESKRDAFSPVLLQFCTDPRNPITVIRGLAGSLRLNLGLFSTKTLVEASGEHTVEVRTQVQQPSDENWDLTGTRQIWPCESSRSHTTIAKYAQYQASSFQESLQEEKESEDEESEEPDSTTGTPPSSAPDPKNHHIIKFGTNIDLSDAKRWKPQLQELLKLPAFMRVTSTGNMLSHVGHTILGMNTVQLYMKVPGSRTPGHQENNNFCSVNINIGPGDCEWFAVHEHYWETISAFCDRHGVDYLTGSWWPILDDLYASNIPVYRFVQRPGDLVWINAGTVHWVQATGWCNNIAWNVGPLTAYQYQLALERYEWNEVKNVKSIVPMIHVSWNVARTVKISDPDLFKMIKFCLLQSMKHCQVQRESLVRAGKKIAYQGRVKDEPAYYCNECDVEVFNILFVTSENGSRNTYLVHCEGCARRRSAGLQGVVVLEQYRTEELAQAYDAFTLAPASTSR
FIH, sequence (Q9NWT6 whole entry): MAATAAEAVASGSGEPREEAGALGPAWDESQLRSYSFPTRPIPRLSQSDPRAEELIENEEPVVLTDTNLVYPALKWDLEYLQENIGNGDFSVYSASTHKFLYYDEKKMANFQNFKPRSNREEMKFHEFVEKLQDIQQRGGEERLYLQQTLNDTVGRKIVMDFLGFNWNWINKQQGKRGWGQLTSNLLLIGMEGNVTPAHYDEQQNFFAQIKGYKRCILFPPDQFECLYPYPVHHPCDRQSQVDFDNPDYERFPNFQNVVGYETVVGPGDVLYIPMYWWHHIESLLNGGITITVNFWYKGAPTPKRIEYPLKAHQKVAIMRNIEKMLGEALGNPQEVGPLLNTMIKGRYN
Protocol for FIH: After 15 minutes, the enzyme reaction was stopped by the addition of 4 ml 10% formic acid and the reaction mixture transferred to a RapidFire RF360 high throughput sampling robot. Samples were aspirated under vacuum onto a C4 Solid Phase Extraction (SPE) cartridge. […] Ion chromatogram data was extracted for the non-hydroxylated peptide substrate and the hydroxylated peptide product and peak area data for extracted ion chromatograms were integrated using RapidFire Integrator software. Percentage conversion of substrate to product was calculated in Microsoft Excel and IC50 values were calculated using Graphpad Prism 5.
Protocol for JMJD1A (KDM3A): Inhibition assays for PHD2 (AlphaScreen) [9], the KDMs (AlphaScreen) [17], BBOX [18] and FTO [19] were carried out as previously described. […] IC50 values were calculated using nonlinear regression with normalized dose-response fit using GraphPad Prism 5.

On to `O=C(O)CNC(=O)c1c(O)c2ccccc2n(Cc2ccccc2)c1=O` [IOX2], for which the results for the pIC50 at FIH, on JMJD2C (KDM4C) and at JMJD3 (KDM6B) were under 4.00, 4.00 and under 4.00, respectively.

`CC(C)(C)OC(=O)c1ccc(-n2[nH]cc(-n3ccnn3)c2=O)nc1` [IOX4, t-Butyl 6-(5-oxo-4-(1H-1,2,3-triazol-1-yl)-2,5-dihydro-1H-pyrazol-1-yl)nicotinate]: the pIC50 – broadly, the IC50 on a negative log10 scale, so that one unit is a factor of ten – against JMJD1A (KDM3A) was under 4.70.
